Test results: PubChem BioAssay AID1078 (Emory University Molecular Libraries Screening Center, 2008)

Biological target: Estrogen receptor (Homo sapiens) (UniProt P03372)
Test: ERα transcriptional antagonism in reporter cells, dose response, orthogonal assay for ERα coactivator binding inhibitor project, HEC-1 cells, luciferase reporter, 1 nM E2 (AID 1078)
Conditions: ERE-luciferase reporter, 1 nM E2, 24 h

Sequence of Estrogen receptor (Homo sapiens) (P03372 whole entry, looked up): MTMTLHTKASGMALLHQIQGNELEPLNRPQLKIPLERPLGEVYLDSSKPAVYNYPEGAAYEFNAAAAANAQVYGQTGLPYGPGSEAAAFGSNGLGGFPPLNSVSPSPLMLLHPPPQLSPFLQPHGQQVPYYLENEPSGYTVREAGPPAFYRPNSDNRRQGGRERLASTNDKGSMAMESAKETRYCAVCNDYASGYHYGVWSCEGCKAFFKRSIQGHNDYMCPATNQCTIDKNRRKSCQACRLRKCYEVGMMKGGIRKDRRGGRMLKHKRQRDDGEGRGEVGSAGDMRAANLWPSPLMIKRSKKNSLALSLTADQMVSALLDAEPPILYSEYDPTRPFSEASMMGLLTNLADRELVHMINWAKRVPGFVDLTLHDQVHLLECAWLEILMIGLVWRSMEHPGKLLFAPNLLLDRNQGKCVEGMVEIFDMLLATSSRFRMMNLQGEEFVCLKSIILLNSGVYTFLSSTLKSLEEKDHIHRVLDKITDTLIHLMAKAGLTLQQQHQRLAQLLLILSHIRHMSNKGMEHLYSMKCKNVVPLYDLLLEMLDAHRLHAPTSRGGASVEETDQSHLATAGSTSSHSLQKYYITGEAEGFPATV

IC50: 4.65 µM
Compound: Cc1ccc(-n2c(=O)c(C#N)cc3c(=O)n4cccc(C)c4nc32)cc1
